Data on three molecules can be found in patent US11904051B2, “Shear stress sensitive liposomes” (Universität Basel, priority 2018, dated 2024).

The nature of data set [1]: Small-angle neutron scattering (SANS) of liposomes as a function of temperature. The data set is classed as physicochemical. Details: key to Eccentricity: ε = c/R axis ratio; <1 oblate, 1 spherical, >1 prolate. An excerpt:
In order to determine the structural parameters, including the bilayer thickness of the selected liposomal formulations, a suitable model for data fitting has to be identified. […] The structure factor was fitted using the sticky hard sphere model (Baxter et al., The Journal of Chemical Physics 1968, 49 (6), 2770-2774; Mays, Langmuir 1989, 5, 422-428). In order to adjust the form factor to the overall shape of the liposomes, an ellipsoidal shell model with a homogeneous cross-section (Guinier, Annales de Physique, 1939; pp 161-237) was applied. The elliptical shell model is defined by three orthogonal axes with lengths a=R, b=R and c=εR, along with eccentricity ε>0, (ε<1: oblate, ε=1: spherical, ε>1: prolate). The model also accounts for variations in bilayer thickness and liposome size. As the scattering data of the Pad-PC-Pad liposomes at the temperature of 35° C. could not be approximated satisfactorily by means of the ellipsoidal shell, the inventors included disks with a homogeneous cross-section—an approach motivated by the cryo-TEM results. Together with the experimental data of the Pad-PC-Pad liposomes at three selected temperatures, the obtained fits are represented in FIG. 23.
The inventors recognised that the inhomogeneity of the liposomal formulations, except for Pad-PC-Pad, concerning the shape and size of the artificial lipids in this study only allows for the reasonable fitting of the q-range, which corresponds to bilayer thickness. For this purpose, the inventors applied an extended Guinier law (Hjelm et al., The Journal of Physical Chemistry B 2000, 104 (2), 197-211; Fratzl, Journal of Statistical Physics 1994, 77 (1-2), 125-143), which yields the thickness of the bilayer. To account for possible multi-lamellarity, the inventors included a para-crystalline stacking model (Schwartz et al., Biophysical journal 1975, 15 (12), 1201-1233; FruÈhwirth et al., Journal of Applied Crystallography 2004, 37 (5), 703-710) as a structure factor.
SANS measurements were performed at the SANS-I beamline at the Swiss Spallation Neutron Source SINQ facility (Paul Scherrer Institute, Villigen, Switzerland). The samples were loaded into 2 mm-path length, boron-free quartz glass cells and mounted in a temperature-controlled holder. This system allows for controlling the temperature of the specimen with an accuracy better than 1 K. The liposomal suspensions were measured between 22 and 42° C. in 3 to 4 K steps. Subsequently, the suspensions were cooled down to room temperature (22° C.) and measured again. Three detector distances, i.e. 1.6, 6.0 and 18.0 m, were used to collect data over the range of scattering vectors 0.01 nm^−1<q<10 nm^−1 at the neutron wavelengths (A) […]. Data were collected with a two-dimensional ^3He-detector with an array of 128×128 pixels and reduced to one-dimensional I(q) scattering curves, thus radially averaging the two-dimensional images. The data were corrected for transmission, background scattering and detector efficiency according to a standard procedure using the BerSANS software package (Keiderling, Applied Physics A 2002, 74 (1), s1455-s1457; Strunz et al., Journal of Applied Crystallography 2000, 33 (3 Part 1), 829-833).
The SANS data were analysed using SASfit software (Breßler et al., Journal of Applied Crystallography 2015, 48 (5), 1587-1598) and corresponding models. A Pad-PC-Pad sample was fitted over the entire measured q-range, whereas we restricted the fit for the other samples to the q-range, which corresponds to lipid bilayer thickness. For Pad-PC-Pad, the inventors used an ellipsoidal shell model with a homogeneous cross-section (Guinier, Annales de Physique, 1939; pp 161-237) and size distributions in terms of both thickness and radius. […]

Data set [2] is described as follows: Cryo-TEM of liposomal suspensions of the SANS study. The data set is classed as physicochemical. On the procedure:
The liposomal suspensions were diluted at a ratio of 1:2 with D2O, to a final concentration of 5 mg/mL. Next, 4 μL aliquots of each suspension were adsorbed onto a holey carbon-coated grid (Lacey, Tedpella, USA), blotted with Whatman 1 filter paper and vitrified into liquid ethane at a temperature of −178° C., using a Leica GP plunger (Leica, Austria). Frozen grids were transferred onto a Talos electron microscope (Thermo Fisher, USA), using a Gatan 626 cryo-holder. Electron micrographs were recorded at an accelerating voltage of 200 kV and a nominal magnification of 45,000×, using a low-dose system (20 e^−/Å^2) and keeping the sample at liquid nitrogen temperature. Micrographs were recorded on the CETA camera. Pixel size at the sample level was (3.26 Å)^2.

[3] abbreviates: 22 ° C. (after cooling down to room temperature).
The mark [4] stands for this setting: 35 ° C., contribution for disks accounted for.

`CCCCCCCCCCCCCCCCC(=O)NCC(CNC(=O)CCCCCCCCCCCCCCCC)OP(=O)([O-])OCC[N+](C)(C)C` [Rad-PC-Rad, 1,3-diheptadecanamidopropan-2-yl (2-(trimethylammonio)ethyl) phosphate]: the most probable bilayer thickness in data set [1] (22 ° C.) turned out to be 4.55 nm; in data set [1] (setting [3]), 4.45 nm; in data set [1] (25 ° C.), 4.57 nm; in data set [1] (28 ° C.) it was 4.55 nm; in data set [1] (32 ° C.) it was 4.51 nm; in data set [1] (35 ° C.), 4.45 nm. In addition, the most probable bilayer thickness in data set [1] (39 ° C.) was 4.35 nm; in data set [1] (42 ° C.), 4.4 nm. Besides, the “thermal stability of liposomes” value in data set [1] (temperature range between 22 and 42° C.) is “thermally stable up to 42 °C”.
On to `CCCCCCCCCCCCCCCC(=O)OC[C@H](COP(=O)([O-])OCC[N+](C)(C)C)OC(=O)CCCCCCCCCCCCCCC` [DPPC, 1,2-dipalmitoyl-sn-glycero-3-phosphocholine], for which the “mean size of liposomes derived from cryo-TEM images” value in data set [2] (after SANS heat treatment and eight months' storage) worked out at 87±20 nm. For the same molecule, in data set [2] (determined by cryo-TEM), the multi-lamellar liposomes result is recorded as “About 16%”. Besides, the most probable bilayer thickness in data set [1] (22 ° C.) worked out at 4.59 nm; in data set [1] (setting [3]) it was 4.67 nm; in data set [1] (25 ° C.), 4.58 nm; in data set [1] (28 ° C.), 4.62 nm; in data set [1] (32 ° C.), 4.61 nm; in data set [1] (35 ° C.), 4.61 nm. In addition, the most probable bilayer thickness in data set [1] (39 ° C.) and in data set [1] (42 ° C.) was 4.65 nm in each case.
`CCCCCCCCCCCCCCCC(=O)NCC(CNC(=O)CCCCCCCCCCCCCCC)OP(=O)([O-])OCC[N+](C)(C)C` [Pad-PC-Pad, 1,3-palmitoylamido-1,3-deoxy-sn-glycero-2-phosphatidylcholine]: the “diameter of flattened liposomes and/or bicelles (cryo-TEM)” value in data set [2] (heated above Tm) is on record as “about 50 nm”. In addition, in data set [2] (not heated above transition temperature), the “average size of liposomes estimated from cryo-TEM images” value is 92±14 nm. The Bilayer thickness is on record as 3.46 ± 1.07 nm in data set [1] (22 ° C.); 4.18 ± 0.70 nm in data set [1] (setting [3]); 3.38 ± 0.94 nm in data set [1] (25 ° C.); 3.34 ± 0.91 nm in data set [1] (28 ° C.); 3.37 ± 0.89 nm in data set [1] (32 ° C.); 3.42 ± 0.88 nm in data set [1] (setting [4]). Besides, the results for the Bilayer thickness in data set [1] (39 ° C.) and in data set [1] (42 ° C.) were 3.37 ± 0.76 nm and 3.57 ± 0.74 nm, respectively. Moreover, the Eccentricity in data set [1] (22 ° C.) is recorded as 0.35; in data set [1] (setting [3]), 0.04; in data set [1] (25 ° C.) it was 0.35; in data set [1] (28 ° C.) it was 0.32; in data set [1] (32 ° C.), 0.31; in data set [1] (setting [4]), 0.88. Besides, the results for the Eccentricity in data set [1] (39 ° C.) and in data set [1] (42 ° C.) were 0.04 and 0.05, respectively. Further, the Radius amounted to 69.96 ± 19.05 nm in data set [1] (22 ° C.); 70.41 ± 31.77 nm in data set [1] (setting [3]); 66.22 ± 21.15 nm in data set [1] (25 ° C.); 69.96 ± 16.31 nm in data set [1] (28 ° C.); 69.90 ± 15.93 nm in data set [1] (32 ° C.); 64.91 nm in data set [1] (setting [4]). Moreover, the Radius in data set [1] (39 ° C.) is on record as 71.96 ± 5.40 nm; in data set [1] (42 ° C.), 71.35 ± 5.01 nm. Besides, in data set [1] (temperature cycle to 42° C. including cooling to room temperature), the “increase in bilayer thickness after the heating cycle” value is listed as 21%.
